Test [1] relates to NCI-H358. As to the kind of experiment: Induction of apoptosis in human NCI-H358 cells grown under 3D anchorage-independent soft-agar conditions at grown under 3D anchorage-independent soft-agar conditions assessed as induction of PARP cleavage at 1 uM in presence of 125 nM of afatinib incubated for 24 hrs by mesoscale assay. In kind it is functional, cell-based.
Another test relates to MIA PaCa-2. The following applies: Homo sapiens, 50 mg/kg.
Test [2] relates to A549. As to the kind of experiment: Induction of apoptosis in human A549 cells grown under 3D anchorage-independent soft-agar conditions at grown under 3D anchorage-independent soft-agar conditions assessed as induction of PARP cleavage at 1 uM in presence of 10 nM of paclitaxel incubated for 24 to 48 hrs by mesoscale assay. The format is functional, cell-based.
In test [3] the test system is NCI-H358. As to the kind of experiment: Induction of apoptosis in human NCI-H358 cells grown under 3D anchorage-independent soft-agar conditions at grown under 3D anchorage-independent soft-agar conditions assessed as induction of PARP cleavage at 1 uM incubated for 24 to 72 hrs by mesoscale assay. In kind it is functional, cell-based.
For test [4], the system named is PC-9. As to the kind of experiment: Growth inhibition of human PC9 cells grown under 3D anchorage-independent soft-agar conditions at 5.56 nM incubated for 14 days by alamar blue dye based assay relative to control. Conditions: PC-9, 336 h, read-out: GI. The format is functional. For orientation: Resazurin is reduced to fluorescent resorufin, in cell work by metabolically active cells.

Test [5] has as its system PC-9. As to the kind of experiment: Growth inhibition of human PC9 cells grown under 3D anchorage-independent soft-agar conditions at 16.7 nM incubated for 14 days by alamar blue dye based assay relative to control. The following applies: PC-9, 336 h, read-out: GI. In kind it is functional.
Test [6] relates to PC-9. As to the kind of experiment: Growth inhibition of human PC9 cells grown under 3D anchorage-independent soft-agar conditions at 1.85 nM incubated for 14 days by alamar blue dye based assay relative to control. The format is functional. Conditions: PC-9, 336 h, read-out: GI.
For test [7], the system named is PC-9. As to the kind of experiment: Growth inhibition of human PC9 cells grown under 3D anchorage-independent soft-agar conditions at 50 nM incubated for 14 days by alamar blue dye based assay relative to control. In kind it is functional. Conditions: PC-9, 336 h, read-out: GI.
The test system of test [8] is PC-9. As to the kind of experiment: Growth inhibition of human PC9 cells grown under 3D anchorage-independent soft-agar conditions at 0.617 nM incubated for 14 days by alamar blue dye based assay relative to control. The format is functional. The following applies: PC-9, 336 h, read-out: GI.
The test system of test [9] is A549. As to the kind of experiment: Growth inhibition of human A549 cells grown under 3D anchorage-independent soft-agar conditions at 164 nM incubated for 14 days by alamar blue dye based assay relative to control. In kind it is functional. The following applies: A549, 336 h, read-out: GI.
Test [10] has as its system A549. As to the kind of experiment: Growth inhibition of human A549 cells grown under 3D anchorage-independent soft-agar conditions at 370 nM incubated for 14 days by alamar blue dye based assay relative to control. In kind it is functional. Conditions: A549, 336 h, read-out: GI.
The subject of test [11] is A549. As to the kind of experiment: Growth inhibition of human A549 cells grown under 3D anchorage-independent soft-agar conditions at 1110 nM incubated for 14 days by alamar blue dye based assay relative to control. In kind it is functional. Conditions: A549, 336 h, read-out: GI.
Test [12] has as its system A549. As to the kind of experiment: Growth inhibition of human A549 cells grown under 3D anchorage-independent soft-agar conditions at 3330 nM incubated for 14 days by alamar blue dye based assay relative to control. In kind it is functional. Conditions: A549, 336 h, read-out: GI.
Test [13] has as its system A549. As to the kind of experiment: Growth inhibition of human A549 cells grown under 3D anchorage-independent soft-agar conditions at 123 nM incubated for 14 days by alamar blue dye based assay relative to control. The format is functional. Conditions: A549, 336 h, read-out: GI.
Test [14] concerns NCI-H358. As to the kind of experiment: Induction of apoptosis in human NCI-H358 cells grown under 3D anchorage-independent soft-agar conditions at grown under 3D anchorage-independent soft-agar conditions assessed as induction of PARP cleavage at 125 nM incubated for 48 hrs by mesoscale assay. The format is functional, cell-based.

Activity calls are given as the source filed them. The rule behind the calls is not given here.

Description for MIA PaCa-2: Antitumor activity against human MIAPaCa2 cells grown under 3D anchorage-independent soft-agar conditions at xenografted in BomTacNMRI-Foxn1 nu mouse assessed as inhibition of tumor regression at 50 mg/kg, po BID relative to control

Turning to `COc1cc2nc(C)nc(N[C@H](C)c3cc(N)cc(C(F)(F)F)c3)c2cc1O[C@H]1CCOC1`, the outcome with NCI-H358 [1] and in the test on A549 [2] was Active. The inhibition entry in the test on MIA PaCa-2 was “inactive”. Moreover, in the test with NCI-H358 [3], the result was inactive.
As for `C#Cc1cccc(Nc2ncnc3cc(OCCOC)c(OCCOC)cc23)c1` [ERLOTINIB], the inhibition of growth at 0.00556 µM in the test on PC-9 [4] was determined as 49%. Further, the inhibition of growth at 0.0167 µM with PC-9 [5] turned out to be 147%. In addition, the inhibition of growth at 0.00185 µM in the test with PC-9 [6] was found to be 12%. The inhibition of growth at 0.05 µM in the test on PC-9 [7] was found to be 199%. The inhibition of growth at 0.000617 µM in the test on PC-9 [8] amounted to 0%.
Consider `COc1cc(F)c(F)c(Nc2ccc(I)cc2F)c1NS(=O)(=O)C1(C[C@H](O)CO)CC1` [REFAMETINIB], for which, in the test on A549 [9], the inhibition of growth at 0.164 µM amounted to 212%. The inhibition of growth at 0.37 µM with A549 [10] was found to be 11%. The inhibition of growth at 1.11 µM in the test with A549 [11] stood at 75%. Also, the inhibition of growth at 3.33 µM in the test with A549 [12] was found to be 209%. Besides, the inhibition of growth at 0.123 µM with A549 [13] was 5%.
Regarding `CN(C)C/C=C/C(=O)Nc1cc2c(Nc3ccc(F)c(Cl)c3)ncnc2cc1O[C@H]1CCOC1`, the result in the test on NCI-H358 [14] was Active.
